BindingDB's records for PubMed 1352553 (University of North Carolina, 1992)
Several values for one entry are separate records, joined by “and”; a condition that tells them apart may be missing. Equal values may be shown once.

Assays:
Adenosine kinase = Adenosine kinase (Rattus norvegicus, UniProt Q64640)
[1] = molecular target: 5-hydroxytryptamine receptor 2A (Rattus norvegicus, UniProt P14842)
[2] = molecular target: Gamma-aminobutyric acid (GABA) B receptor 1 (Rattus norvegicus, UniProt Q6MFX8)
[3] = molecular target: Alpha-1A adrenergic receptor (Rattus norvegicus, UniProt P43140)
5'-nucleotidase = 5'-nucleotidase (Rattus norvegicus, UniProt P21588)
[4] = molecular target: Gamma-aminobutyric acid receptor subunit alpha-1 (Rattus norvegicus, UniProt P62813)
Adenylate cyclase type 3 = Adenylate cyclase type 3 (Rattus norvegicus, UniProt P21932)
[5] = molecular target: Alpha-2C adrenergic receptor (Rattus norvegicus, UniProt P22086)
Natriuretic peptides A = Natriuretic peptides A (Rattus norvegicus, UniProt P01161)
Angiotensinogen = Angiotensinogen (Rattus norvegicus, UniProt P01015)
[6] = molecular target: Arginine vasopressin-induced protein 1 (Rattus norvegicus, UniProt Q8VDA6)
[7] = molecular target: Bombesin receptor subtype-3 (Rattus norvegicus, UniProt Q8K418)
[8] = molecular target: Voltage-dependent L-type calcium channel subunit alpha-1C (Rattus norvegicus, UniProt P22002)
[9] = molecular target: Chloride channel protein 1 (Rattus norvegicus, UniProt P35524)
[10] = molecular target: Cholecystokinin receptor type A (Rattus norvegicus, UniProt P30551)
[11] = molecular target: Pro-epidermal growth factor (Rattus norvegicus, UniProt P07522)
Glutamate receptor 3 = Glutamate receptor 3 (Rattus norvegicus, UniProt P19492)
[12] = molecular target: Glutamate receptor ionotropic, kainate 1 (Rattus norvegicus, UniProt P22756)
[13] = molecular target: Glutamate receptor ionotropic, NMDA 1 (Rattus norvegicus, UniProt P35439)
[14] = molecular target: Glycine amidinotransferase, mitochondrial (Rattus norvegicus, UniProt P50442)
[15] = molecular target: Phosphatidylinositol 3,4,5-trisphosphate 5-phosphatase 2 (Rattus norvegicus, UniProt Q9WVR3)
Interleukin-18 = Interleukin-18 (Rattus norvegicus, UniProt P97636)
Beta-nerve growth factor = Beta-nerve growth factor (Rattus norvegicus, UniProt P25427)
[16] = molecular target: Norepinephrine transporter (Rattus norvegicus, UniProt Q9JIA2)
[17] = molecular target: Sigma non-opioid intracellular receptor 1 (Rattus norvegicus, UniProt Q9R0C9)
[18] = molecular target: Potassium voltage-gated channel subfamily H member 8 (Rattus norvegicus, UniProt Q9QWS8)
Somatostatin = Somatostatin (Rattus norvegicus, UniProt P60042)
Protachykinin-1 = Protachykinin-1 (Rattus norvegicus, UniProt P06767)
VIP peptides = VIP peptides (Rattus norvegicus, UniProt P01283)
[19] = molecular target: Beta-2 adrenergic receptor (Rattus norvegicus, UniProt P10608)

Alpha-2C adrenergic receptor, sequence (P22086 whole entry): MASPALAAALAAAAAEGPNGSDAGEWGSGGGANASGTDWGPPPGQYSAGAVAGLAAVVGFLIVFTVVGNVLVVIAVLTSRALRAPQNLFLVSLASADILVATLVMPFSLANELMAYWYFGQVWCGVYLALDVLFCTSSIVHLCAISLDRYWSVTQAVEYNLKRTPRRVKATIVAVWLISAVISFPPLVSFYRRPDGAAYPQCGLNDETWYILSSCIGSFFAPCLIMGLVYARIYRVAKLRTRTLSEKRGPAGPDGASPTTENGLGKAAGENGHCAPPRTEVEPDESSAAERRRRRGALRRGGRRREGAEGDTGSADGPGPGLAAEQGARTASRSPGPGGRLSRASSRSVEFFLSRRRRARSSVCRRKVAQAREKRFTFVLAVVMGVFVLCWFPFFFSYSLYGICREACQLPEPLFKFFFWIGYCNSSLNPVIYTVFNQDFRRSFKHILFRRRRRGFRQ
Voltage-dependent L-type calcium channel subunit alpha-1C, sequence (P22002 whole entry): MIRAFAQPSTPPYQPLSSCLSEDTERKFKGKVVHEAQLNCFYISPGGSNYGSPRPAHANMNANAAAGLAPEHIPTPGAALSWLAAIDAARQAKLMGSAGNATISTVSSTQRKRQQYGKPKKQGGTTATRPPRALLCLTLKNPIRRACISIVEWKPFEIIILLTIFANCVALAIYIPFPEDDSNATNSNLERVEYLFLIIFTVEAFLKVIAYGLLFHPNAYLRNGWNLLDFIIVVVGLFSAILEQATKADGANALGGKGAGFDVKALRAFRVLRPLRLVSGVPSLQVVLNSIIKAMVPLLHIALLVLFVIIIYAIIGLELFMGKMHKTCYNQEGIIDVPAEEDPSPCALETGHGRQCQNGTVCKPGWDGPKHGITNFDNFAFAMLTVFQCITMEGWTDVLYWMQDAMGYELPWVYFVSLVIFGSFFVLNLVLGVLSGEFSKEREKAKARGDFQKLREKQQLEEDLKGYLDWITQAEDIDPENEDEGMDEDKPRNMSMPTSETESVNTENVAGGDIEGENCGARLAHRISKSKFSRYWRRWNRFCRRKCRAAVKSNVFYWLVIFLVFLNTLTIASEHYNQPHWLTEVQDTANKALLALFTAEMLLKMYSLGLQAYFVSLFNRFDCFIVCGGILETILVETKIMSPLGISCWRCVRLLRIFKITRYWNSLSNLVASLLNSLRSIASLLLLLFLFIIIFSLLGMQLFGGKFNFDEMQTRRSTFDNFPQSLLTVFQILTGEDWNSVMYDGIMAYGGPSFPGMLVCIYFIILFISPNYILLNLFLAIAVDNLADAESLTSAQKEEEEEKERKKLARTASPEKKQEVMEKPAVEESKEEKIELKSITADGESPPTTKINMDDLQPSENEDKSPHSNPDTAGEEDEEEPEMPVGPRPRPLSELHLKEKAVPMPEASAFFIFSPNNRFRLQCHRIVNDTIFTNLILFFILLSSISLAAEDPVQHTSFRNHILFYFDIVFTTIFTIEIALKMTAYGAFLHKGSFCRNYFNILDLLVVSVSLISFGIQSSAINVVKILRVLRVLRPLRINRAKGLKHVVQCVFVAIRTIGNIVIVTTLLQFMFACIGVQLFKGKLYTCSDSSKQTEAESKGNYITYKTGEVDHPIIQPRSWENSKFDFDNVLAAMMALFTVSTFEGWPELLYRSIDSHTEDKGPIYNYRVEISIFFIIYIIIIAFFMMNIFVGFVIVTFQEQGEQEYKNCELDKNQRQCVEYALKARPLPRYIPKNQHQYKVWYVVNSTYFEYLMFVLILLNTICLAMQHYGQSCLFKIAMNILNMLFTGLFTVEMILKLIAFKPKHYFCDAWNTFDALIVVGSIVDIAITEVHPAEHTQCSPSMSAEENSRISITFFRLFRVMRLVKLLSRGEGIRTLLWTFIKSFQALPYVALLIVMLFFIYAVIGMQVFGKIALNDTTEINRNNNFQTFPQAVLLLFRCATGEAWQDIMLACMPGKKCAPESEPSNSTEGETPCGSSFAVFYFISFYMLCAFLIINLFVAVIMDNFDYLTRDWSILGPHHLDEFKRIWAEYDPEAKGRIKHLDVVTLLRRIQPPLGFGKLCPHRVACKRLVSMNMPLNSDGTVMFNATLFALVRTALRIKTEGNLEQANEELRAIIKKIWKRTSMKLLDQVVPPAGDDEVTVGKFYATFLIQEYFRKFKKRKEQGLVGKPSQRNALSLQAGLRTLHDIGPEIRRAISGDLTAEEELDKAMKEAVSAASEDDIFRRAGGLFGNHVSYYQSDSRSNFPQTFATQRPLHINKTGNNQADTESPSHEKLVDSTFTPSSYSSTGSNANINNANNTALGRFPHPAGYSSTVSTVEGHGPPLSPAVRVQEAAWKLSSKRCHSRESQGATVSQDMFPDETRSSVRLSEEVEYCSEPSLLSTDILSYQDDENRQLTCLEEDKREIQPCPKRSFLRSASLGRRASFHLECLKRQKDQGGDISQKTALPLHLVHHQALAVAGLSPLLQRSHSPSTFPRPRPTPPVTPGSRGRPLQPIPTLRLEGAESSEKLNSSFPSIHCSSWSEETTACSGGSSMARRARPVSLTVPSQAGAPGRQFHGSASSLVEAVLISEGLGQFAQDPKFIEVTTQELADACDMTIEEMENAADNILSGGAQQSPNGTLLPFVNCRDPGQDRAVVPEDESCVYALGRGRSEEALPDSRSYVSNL
Alpha-1A adrenergic receptor, sequence (P43140 whole entry): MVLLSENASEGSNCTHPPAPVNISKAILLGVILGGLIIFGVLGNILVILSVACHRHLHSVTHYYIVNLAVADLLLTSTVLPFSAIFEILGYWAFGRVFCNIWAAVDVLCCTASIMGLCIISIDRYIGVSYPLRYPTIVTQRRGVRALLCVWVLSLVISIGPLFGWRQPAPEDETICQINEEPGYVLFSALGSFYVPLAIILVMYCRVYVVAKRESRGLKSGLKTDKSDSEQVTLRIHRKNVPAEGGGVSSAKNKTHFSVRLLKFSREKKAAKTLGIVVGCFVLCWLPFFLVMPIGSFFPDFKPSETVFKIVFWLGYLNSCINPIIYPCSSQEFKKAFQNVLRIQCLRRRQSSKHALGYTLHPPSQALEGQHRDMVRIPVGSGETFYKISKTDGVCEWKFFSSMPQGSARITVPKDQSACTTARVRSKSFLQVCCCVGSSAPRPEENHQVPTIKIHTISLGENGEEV
Bombesin receptor subtype-3, sequence (Q8K418 whole entry): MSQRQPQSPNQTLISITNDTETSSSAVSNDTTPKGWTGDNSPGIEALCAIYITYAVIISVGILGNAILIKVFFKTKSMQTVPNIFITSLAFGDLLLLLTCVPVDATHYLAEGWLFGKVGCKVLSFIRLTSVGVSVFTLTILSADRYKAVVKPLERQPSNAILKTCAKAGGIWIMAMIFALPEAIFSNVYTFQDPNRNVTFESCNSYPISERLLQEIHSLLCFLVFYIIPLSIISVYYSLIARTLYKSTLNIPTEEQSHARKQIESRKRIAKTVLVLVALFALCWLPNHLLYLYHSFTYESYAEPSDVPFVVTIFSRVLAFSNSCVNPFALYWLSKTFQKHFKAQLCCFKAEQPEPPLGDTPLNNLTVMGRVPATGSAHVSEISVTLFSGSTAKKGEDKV
Beta-nerve growth factor, sequence (P25427 122-241 limits assumed): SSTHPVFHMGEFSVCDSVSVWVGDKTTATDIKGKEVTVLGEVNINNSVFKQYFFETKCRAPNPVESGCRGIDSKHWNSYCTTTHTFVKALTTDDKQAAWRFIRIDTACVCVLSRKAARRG
Angiotensinogen, sequence (P01015 whole entry): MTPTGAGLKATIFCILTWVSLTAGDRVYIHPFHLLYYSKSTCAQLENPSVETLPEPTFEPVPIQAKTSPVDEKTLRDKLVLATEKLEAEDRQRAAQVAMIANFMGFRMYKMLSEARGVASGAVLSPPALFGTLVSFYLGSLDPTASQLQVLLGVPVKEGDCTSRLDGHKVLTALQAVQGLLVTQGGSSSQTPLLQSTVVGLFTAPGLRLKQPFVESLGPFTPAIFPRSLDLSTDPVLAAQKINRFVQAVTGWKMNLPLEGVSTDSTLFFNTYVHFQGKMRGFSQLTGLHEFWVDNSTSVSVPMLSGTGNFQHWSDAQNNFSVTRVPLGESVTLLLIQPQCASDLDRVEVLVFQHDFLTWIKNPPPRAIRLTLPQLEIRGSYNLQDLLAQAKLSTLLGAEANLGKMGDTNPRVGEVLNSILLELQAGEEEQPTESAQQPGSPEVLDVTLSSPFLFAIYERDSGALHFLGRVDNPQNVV
Glutamate receptor 3, sequence (P19492 whole entry): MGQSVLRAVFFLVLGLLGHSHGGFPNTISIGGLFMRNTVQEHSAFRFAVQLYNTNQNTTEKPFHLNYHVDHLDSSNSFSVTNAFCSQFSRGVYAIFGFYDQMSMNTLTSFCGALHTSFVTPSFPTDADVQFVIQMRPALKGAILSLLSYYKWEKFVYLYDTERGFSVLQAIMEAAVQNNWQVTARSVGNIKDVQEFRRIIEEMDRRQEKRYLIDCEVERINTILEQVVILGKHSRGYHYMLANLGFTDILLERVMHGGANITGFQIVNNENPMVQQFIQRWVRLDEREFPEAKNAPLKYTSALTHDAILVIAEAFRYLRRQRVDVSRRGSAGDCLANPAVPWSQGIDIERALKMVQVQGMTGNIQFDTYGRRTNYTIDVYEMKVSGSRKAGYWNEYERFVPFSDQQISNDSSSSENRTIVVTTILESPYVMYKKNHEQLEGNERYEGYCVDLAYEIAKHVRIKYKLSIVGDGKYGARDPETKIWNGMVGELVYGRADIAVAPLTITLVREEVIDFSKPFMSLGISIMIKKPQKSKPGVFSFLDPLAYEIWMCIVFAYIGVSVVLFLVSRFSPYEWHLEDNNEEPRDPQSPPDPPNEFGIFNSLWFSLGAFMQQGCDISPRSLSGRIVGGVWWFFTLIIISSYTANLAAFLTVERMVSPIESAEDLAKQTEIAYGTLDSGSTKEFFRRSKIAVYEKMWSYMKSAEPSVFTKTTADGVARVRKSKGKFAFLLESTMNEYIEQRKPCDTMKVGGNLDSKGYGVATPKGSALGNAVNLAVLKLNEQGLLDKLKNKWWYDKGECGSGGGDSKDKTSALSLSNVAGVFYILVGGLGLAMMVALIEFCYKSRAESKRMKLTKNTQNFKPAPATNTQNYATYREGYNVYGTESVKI
Pro-epidermal growth factor, sequence (P07522 974-1026 limits assumed): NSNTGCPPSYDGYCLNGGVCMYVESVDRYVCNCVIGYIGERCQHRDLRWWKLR

Oc1cc2c(cc1O)[C@@H]1c3ccccc3CN[C@@H]1CC2 [(+/-)-trans-10,11-dihydroxy-5,6,6a,7,8,12b-hexahydrobenzo[a]phenanthridine]
Ki (Adenosine kinase): > 10 µM
Ki [1]: > 10 µM
Ki [2]: > 10 µM
Ki [3]: > 10 µM
Ki (5'-nucleotidase): > 10 µM
Ki [4]: > 10 µM
Ki (Adenylate cyclase type 3): > 10 µM
Ki [5]: 0.23 µM and 1 µM
Ki (Natriuretic peptides A): > 10 µM
Ki (Angiotensinogen): > 10 µM
Ki [6]: > 10 µM
Ki [7]: > 10 µM
Ki [8]: > 10 µM
Ki [9]: > 10 µM
Ki [10]: > 10 µM
Ki [11]: > 10 µM
Ki (Glutamate receptor 3): > 10 µM
Ki [12]: > 10 µM
Ki [13]: > 10 µM
Ki [14]: > 10 µM
Ki [15]: > 10 µM
Ki (Interleukin-18): > 10 µM
Ki (Beta-nerve growth factor): > 10 µM
Ki [16]: > 10 µM
Ki [17]: > 10 µM
Ki [18]: > 10 µM
Ki (Somatostatin): > 10 µM
Ki (Protachykinin-1): > 10 µM
Ki (VIP peptides): > 10 µM
Ki [19]: > 10 µM
